Measured values taken from PubChem BioAssay AID624367 (Broad Institute, 2012).
The source made the active and inactive calls. How the calls were made is not given here.

Assay: viability loss in LCL cells – cell-based, plate reader, dry powder, set 2, cytotoxicity control, dose response (AID 624367)
Settings: Lymphoblastoid cell line (LCL) cytotoxicity, plate reader

| Compound | activity change, negative = cytotoxicity (at 35 µM (top of the series)) | activity change, negative = cytotoxicity (at 16 µM (top of the series)) |
| --- | --- | --- |
| Cc1cc(C(=O)Nc2ccc3c(c2)C(=O)N(C)[C@H]2CC[C@@H](CC(=O)NCc4ccc(-c5ccccc5)cc4)O[C@H]2CO3)no1 | -17.8% (inactive) | – |
| C[C@@H]1CN([C@H](C)CO)C(=O)Cc2cc(NC(=O)Cc3ccccc3)ccc2O[C@@H]1CN(C)Cc1ccc(C(F)(F)F)cc1 | – | 4.6% (inactive) |
| C[C@@H](NC(=O)C[C@H]1C=C[C@H](NC(=O)Cc2ccccn2)[C@@H](CO)O1)c1ccccc1 | -5.21% (inactive) | – |
| Cc1cc(C(=O)Nc2ccc3c(c2)C(=O)N(C)[C@H]2CC[C@H](CC(=O)NCc4ccc(-c5ccccc5)cc4)O[C@H]2CO3)no1 | -10.2% (inactive) | – |
| O=C(Cc1ccccn1)NCC[C@@H]1CC[C@@H](NC(=O)Nc2ccc(Cl)cc2)[C@@H](CO)O1 | 1.2% (inactive) | – |
| COc1cccc(S(=O)(=O)N(C)C[C@H]2Oc3cc(C4=CCCCC4)ccc3S(=O)(=O)N([C@H](C)CO)C[C@H]2C)c1 | -4.62% (inactive) | – |
| COc1ccccc1C#Cc1ccc2c(c1)O[C@H](CN(C)Cc1cccnc1)[C@@H](C)CN([C@@H](C)CO)S2(=O)=O | -6.79% (inactive) | – |
| C[C@@H](NC(=O)C[C@@H]1C=C[C@@H](NC(=O)Cc2ccccn2)[C@H](CO)O1)c1ccccc1 | 0.18% (inactive) | – |
| N#C[C@H]1[C@@H](c2ccc(-c3cccnc3)cc2)[C@@H](CO)N1C(=O)Nc1ccc(F)cc1 | 3.54% (inactive) | – |
| CS(=O)(=O)Nc1ccc2c(c1)[C@@H]1C[C@H](CC(=O)NCC3CC3)O[C@H](CO)[C@@H]1O2 | 1.53% (inactive) | – |
| O=C(Cc1ccccn1)NCC[C@@H]1CC[C@@H](NC(=O)Nc2ccc(Cl)cc2)[C@H](CO)O1 | -2.4% (inactive) | – |
| CC(C)(C)[S@@](=O)N1Cc2cc(C(=O)NCc3ccccn3)nc(-c3cccc(-c4ccccc4F)c3)c2[C@H]1CCO | -1.27% (inactive) | – |
| COc1ccccc1C#Cc1ccc([C@H]2[C@H](C#N)N(C(=O)C3CC3)[C@H]2CO)cc1 | -4.85% (inactive) | – |
| CN(C)c1ccc2c(c1)[C@@H]1C[C@@H](CC(=O)NCc3ccc(Oc4ccccc4)cc3)O[C@H](CO)[C@@H]1O2 | 4.68% (inactive) | – |
| O=C(C[C@@H]1C[C@H]2c3cc(NC(=O)c4ccc5c(c4)OCO5)ccc3O[C@H]2[C@H](CO)O1)NC1CCCCC1 | -16.7% (inactive) | – |
| C[C@H](CO)N1C[C@H](C)[C@@H](CN(C)Cc2ccc(C(F)(F)F)cc2)Oc2ccc(NC(=O)Cc3ccccc3)cc2CC1=O | -0.272% (inactive) | – |
| Cc1cc(C(=O)Nc2ccc3c(c2)C(=O)N(C)[C@@H]2CC[C@@H](CC(=O)NCc4ccc(-c5ccccc5)cc4)O[C@H]2CO3)no1 | -5.25% (inactive) | – |
| C[C@H](NC(=O)C[C@@H]1C=C[C@H](NC(=O)Cc2ccccn2)[C@@H](CO)O1)c1ccccc1 | 4.27% (inactive) | – |
| CN1C(=O)c2cc(NC(=O)c3ccc(C(F)(F)F)cc3)ccc2OC[C@@H]2O[C@@H](CC(=O)NC3Cc4ccccc4C3)CC[C@H]21 | -7.43% (inactive) | – |
| O=C(Cc1ccccn1)NCC[C@H]1CC[C@H](NC(=O)Nc2ccc(Cl)cc2)[C@@H](CO)O1 | 3.54% (inactive) | – |
| N#C[C@H]1[C@H](c2ccc(C#Cc3ccccc3F)cc2)[C@@H](CO)N1C(=O)c1cccnc1 | 3.23% (inactive) | – |
| COc1ccccc1C(=O)Nc1ccc2c(c1)C(=O)N(C)[C@@H]1CC[C@H](CC(=O)NCCc3ccncc3)O[C@H]1CO2 | 0.764% (inactive) | – |
| CC(C)NC(=O)N1Cc2cc(C(=O)NC3Cc4ccccc4C3)nc(-c3cccc(-c4cccnc4)c3)c2[C@H]1CCO | -2.11% (inactive) | – |
| O=C(C[C@@H]1CC[C@@H]2[C@H](COC[C@H](O)CN2Cc2ccc3c(c2)OCO3)O1)Nc1ccc(-c2ccccc2)cc1 | -4.84% (inactive) | – |
| O=C(C[C@@H]1C[C@H]2c3cc(NS(=O)(=O)c4ccc(F)cc4)ccc3O[C@H]2[C@@H](CO)O1)NC1CCCCC1 | 5.66% (inactive) | – |
| C[C@H](NC(=O)C[C@H]1C=C[C@@H](NC(=O)Cc2ccccn2)[C@@H](CO)O1)c1ccccc1 | 6.04% (inactive) | – |
| C[C@H]1CN([C@@H](C)CO)C(=O)c2cc(C#Cc3ccccc3F)cnc2O[C@@H]1CN(C)C(=O)C1CCCCC1 | 8.49% (inactive) | – |
| COc1cccc(S(=O)(=O)N(C)C[C@@H]2Oc3cc(C4=CCCCC4)ccc3S(=O)(=O)N([C@@H](C)CO)C[C@@H]2C)c1 | -5.63% (inactive) | – |
| C[C@H](NC(=O)C[C@@H]1C=C[C@@H](NC(=O)Cc2ccccn2)[C@H](CO)O1)c1ccccc1 | 3.26% (inactive) | – |
